Laboratory results reported in PMC13608006 (Journal of medicinal chemistry, 2018).

Legend:
CV-B3 (CVB3-H3) = assay type: cell-based, coxsackievirus B3; settings: for SI50 (CV-B3 in HeLa cells): SI50 = CC50/EC50
EV-A71 = test: antiviral CPE assay, anti-EV-A71 in LLC cells; assay type: cell-based, enterovirus 71 (EV-A71); settings: SI50 = CC50/EC50
PV-1 = assay type: cell-based, poliovirus-1; settings: SI50 = CC50/EC50

SMILES	SI50 (CV-B3 in HeLa cells) (CV-B3 (CVB3-H3))	SI50 (EV-A71 in LLC cells) (EV-A71)	SI50 (PV-1 in HeLa cells) (PV-1)	antiviral activities against coxsackievirus B3 (CV-B3) (CV-B3 (CVB3-H3))
CC(C)n1ncc2c(C(=O)Nc3ccccn3)cc(-c3ccsc3)nc21 [JX057, 1-Isopropyl-N-(pyridin-2-yl)-6-(thiophen-3-yl)-1H-pyrazolo-[3,4-b]pyridine-4-carboxamide]	SI50: 15.0	SI50: 31.3	–	–
CC(C)n1ncc2c(C(=O)Nc3cccnc3)cc(-c3cccs3)nc21 [JX056, 1-Isopropyl-N-(pyridin-3-yl)-6-(thiophen-2-yl)-1H-pyrazolo-[3,4-b]pyridine-4-carboxamide]	SI50: 62.5	SI50: >400.0	SI50: 2.5	–
CC(C)n1ccc2c(C(=O)Nc3cccnc3)cc(-c3cccs3)nc21 [JX062, 1-Isopropyl-N-(pyridin-3-yl)-6-(thiophen-2-yl)-1H-pyrrolo-[2,3-b]pyridine-4-carboxamide]	SI50: 13.8	SI50: 31.3	–	–
CC(C)n1ncc2c(C(=O)Nc3ccc(F)cc3)cc(-c3cccs3)nc21 [JX017, N-(4-Fluorophenyl)-1-isopropyl-6-(thiophen-2-yl)-1H-pyrazolo[3,4-b]pyridine-4-carboxamide]	SI50: >285.7	SI50: >222.2	–	–
CC(C)n1ncc2c(C(=O)Nc3c(F)cccc3F)cc(-c3cccs3)nc21 [JX009, N-(2,6-Difluorophenyl)-1-isopropyl-6-(thiophen-2-yl)-1H-pyrazolo[3,4-b]pyridine-4-carboxamide]	SI50: >62.5	SI50: >58.8	–	–
CC(C)n1ncc2c(C(=O)Nc3cccc(F)c3)cc(-c3cccs3)nc21 [JX021, N-(3-Fluorophenyl)-1-isopropyl-6-(thiophen-2-yl)-1H-pyrazolo[3,4-b]pyridine-4-carboxamide]	SI50: >250.0	SI50: >83.3	–	–
CC(C)n1ncc2c(C(=O)Nc3ccccc3F)cc(-c3ccccc3)nc21 [JX002, N-(2-Fluorophenyl)-1-isopropyl-6-phenyl-1H-pyrazolo[3,4-b]pyridine-4-carboxamide]	SI50: 8.3	SI50: >35.1	–	–
CC(C)n1ncc2c(C(=O)Nc3cccc(F)c3F)cc(-c3cccs3)nc21 [JX019, N-(2,3-Difluorophenyl)-1-isopropyl-6-(thiophen-2-yl)-1H-pyrazolo[3,4-b]pyridine-4-carboxamide]	SI50: >74.1	SI50: 25.0	–	–
CC(C)n1ncc2c(C(=O)Nc3ccncn3)cc(-c3ccsc3)nc21 [JX059, 1-Isopropyl-N-(pyrimidin-4-yl)-6-(thiophen-3-yl)-1H-pyrazolo[3,4-b]pyridine-4-carboxamide]	SI50: >166.7	SI50: >250.0	–	–
CC(C)n1ncc2c(C(=O)Nc3cccnc3)cc(-c3ccsc3)nc21 [JX060, 1-Isopropyl-N-(pyridin-3-yl)-6-(thiophen-3-yl)-1H-pyrazolo-[3,4-b]pyridine-4-carboxamide]	SI50: 30.0	SI50: 15.4	–	–
CC(C)n1ncc2c(C(=O)Nc3c(F)cc(F)cc3F)cc(-c3cccs3)nc21 [JX020, 1-Isopropyl-6-(thiophen-2-yl)-N-(2,4,6-trifluorophenyl)-1H-pyrazolo[3,4-b]pyridine-4-carboxamide]	SI50: >111.1	SI50: >66.7	–	–
CC(C)n1ncc2c(C(=O)Nc3ccc(F)cc3)cc(-c3ccsc3)nc21 [JX030, N-(4-Fluorophenyl)-1-isopropyl-6-(thiophen-3-yl)-1H-pyrazolo[3,4-b]pyridine-4-carboxamide]	SI50: 19.2	SI50: >142.9	–	–
CC(C)n1ncc2c(C(=O)Nc3cccc(S(=O)(=O)N(C)C)c3)cc(-c3cccs3)nc21 [JX052, N-(3-(N,N-Dimethylsulfamoyl)phenyl)-1-isopropyl-6-(thiophen-2-yl)-1H-pyrazolo[3,4-b]pyridine-4-carboxamide]	SI50: 12.0	SI50: >250.0	–	–
CNS(=O)(=O)c1cccc(NC(=O)c2cc(-c3cccs3)nc3c2cnn3C(C)C)c1 [JX053, 1-Isopropyl-N-(3-(N-methylsulfamoyl)phenyl)-6-(thiophen-2-yl)-1H-pyrazolo[3,4-b]pyridine-4-carboxamide]	SI50: 24.0	SI50: 35.7	–	–
CC(C)n1ccc2c(C(=O)Nc3ccccn3)cc(-c3cccs3)nc21 [JX072, 1-Isopropyl-N-(pyridin-2-yl)-6-(thiophen-2-yl)-1H-pyrrolo-[2,3-b]pyridine-4-carboxamide]	SI50: 8.5	SI50: >166.7	–	–
CC(C)n1ncc2c(C(=O)Nc3ccc(F)cc3)cc(-c3ccco3)nc21 [JX026, N-(4-Fluorophenyl)-6-(furan-2-yl)-1-isopropyl-1H-pyrazolo-[3,4-b]pyridine-4-carboxamide]	SI50: >83.0	SI50: >76.9	–	–

SMILES	SI50 (CV-B3 in HeLa cells) (CV-B3 (CVB3-H3))	SI50 (EV-A71 in LLC cells) (EV-A71)	SI50 (PV-1 in HeLa cells) (PV-1)	antiviral activities against coxsackievirus B3 (CV-B3) (CV-B3 (CVB3-H3))
CC(C)n1ncc2c(C(=O)Nc3ccncn3)cc(-c3cccs3)nc21 [JX043, 1-Isopropyl-N-(pyrimidin-4-yl)-6-(thiophen-2-yl)-1H-pyrazolo[3,4-b]pyridine-4-carboxamide]	SI50: 33.3	SI50: 100.0	–	–
CC(C)n1ncc2c(C(=O)Nc3ccccn3)cc(C3CC3)nc21 [JX071, 6-Cyclopropyl-1-isopropyl-N-(pyridin-2-yl)-1H-pyrazolo[3,4-b]pyridine-4-carboxamide]	SI50: 5.3	SI50: 5.3	–	–
CC(C)n1ncc2c(C(=O)Nc3ccncc3)cc(-c3cccs3)nc21 [JX042, 1-Isopropyl-N-(pyridin-4-yl)-6-(thiophen-2-yl)-1H-pyrazolo-[3,4-b]pyridine-4-carboxamide]	SI50: 10.0	SI50: 15.8	–	–
CC(C)n1ncc2c(C(=O)Nc3ccccn3)cc(-c3ccccc3)nc21 [JX070, 1-Isopropyl-6-phenyl-N-(pyridin-2-yl)-1H-pyrazolo[3,4-b]-pyridine-4-carboxamide]	SI50: 11.8	SI50: 17.9	–	–
CC(C)n1ncc2c(C(=O)Nc3ccc(F)cn3)cc(-c3cccs3)nc21 [JX075, N-(5-Fluoropyridin-2-yl)-1-isopropyl-6-(thiophen-2-yl)-1H-pyrazolo[3,4-b]pyridine-4-carboxamide]	SI50: 53.6	SI50: >166.7	–	–
CC(C)n1ncc2c(C(=O)Nc3ccc(F)c(S(N)(=O)=O)c3)cc(-c3cccs3)nc21 [JX069, N-(4-Fluoro-3-sulfamoylphenyl)-1-isopropyl-6-(thiophen-2-yl)-1H-pyrazolo[3,4-b]pyridine-4-carboxamide]	SI50: >181.8	SI50: 62.5	–	–
CC(C)n1ncc2c(C(=O)Nc3ccc(F)cc3)cc(C3CC3)nc21 [JX038, 6-Cyclopropyl-N-(4-fluorophenyl)-1-isopropyl-1H-pyrazolo-[3,4-b]pyridine-4-carboxamide]	SI50: 3.0	SI50: 3.9	–	–
CC(C)n1ncc2c(C(=O)Nc3ccccc3F)cc(-c3cncs3)nc21 [JX010, N-(2-Fluorophenyl)-1-isopropyl-6-(thiazol-5-yl)-1H-pyrazolo[3,4-b]pyridine-4-carboxamide]	SI50: >60.6	SI50: 27.0	–	–
CC(C)n1ncc2c(C(=O)Nc3cc(F)ccc3F)cc(-c3cccs3)nc21 [JX018, N-(2,5-Difluorophenyl)-1-isopropyl-6-(thiophen-2-yl)-1H-pyrazolo[3,4-b]pyridine-4-carboxamide]	SI50: >74.1	SI50: 28.6	–	–
CC(C)n1ncc2c(C(=O)Nc3ccccc3S(N)(=O)=O)cc(-c3cccs3)nc21 [JX033, 1-Isopropyl-N-(2-sulfamoylphenyl)-6-(thiophen-2-yl)-1H-pyrazolo[3,4-b]pyridine-4-carboxamide]	SI50: 3.8	SI50: 10.0	–	–
CC(C)n1ncc2c(C(=O)Nc3ccccn3)cc(-c3cccs3)nc21 [JX040, 1-Isopropyl-N-(pyridin-2-yl)-6-(thiophen-2-yl)-1H-pyrazolo-[3,4-b]pyridine-4-carboxamide]	SI50: >250.0	SI50: >400.0	–	–
CC(C)n1ncc2c(C(=O)Nc3ncccn3)cc(-c3ccsc3)nc21 [JX058, 1-Isopropyl-N-(pyrimidin-2-yl)-6-(thiophen-3-yl)-1H-pyrazolo[3,4-b]pyridine-4-carboxamide]	SI50: 33.3	SI50: 41.7	–	–
CC(C)n1ncc2c(C(=O)Nc3ccc(S(C)(=O)=O)cc3)cc(-c3cccs3)nc21 [JX047, 1-Isopropyl-N-(4-(methylsulfonyl)phenyl)-6-(thiophen-2-yl)-1H-pyrazolo[3,4-b]pyridine-4-carboxamide]	SI50: 200.0	SI50: 100.0	–	–
O=C(Nc1ccccc1F)c1cc(-c2cccs2)nc2c1cnn2C1CCC1 [JX014, 1-Cyclobutyl-N-(2-fluorophenyl)-6-(thiophen-2-yl)-1H-pyrazolo[3,4-b]pyridine-4-carboxamide]	–	–	–	none of the above analogs demonstrated antiviral activities
CC(C)n1ncc2c(C(=O)Nc3ncccn3)cc(-c3cccs3)nc21 [JX041, 1-Isopropyl-N-(pyrimidin-2-yl)-6-(thiophen-2-yl)-1H-pyrazolo[3,4-b]pyridine-4-carboxamide]	SI50: 62.5	SI50: 150.0	–	–
CC(C)n1ncc2c(C(=O)Nc3ccc(F)cc3F)cc(-c3cccs3)nc21 [JX008, N-(2,4-Difluorophenyl)-1-isopropyl-6-(thiophen-2-yl)-1H-pyrazolo[3,4-b]pyridine-4-carboxamide]	SI50: >142.9	SI50: >125.0	–	–
